{"source": "ChEMBL document CHEMBL5150003", "about": "“Why All the Fury over Furin?” (J Med Chem, 2022)", "key": {"Furin [1]": {"molecular_target": "T1, Furin (Homo sapiens, UniProt P09958)", "T1 sequence (P09958 whole entry)": "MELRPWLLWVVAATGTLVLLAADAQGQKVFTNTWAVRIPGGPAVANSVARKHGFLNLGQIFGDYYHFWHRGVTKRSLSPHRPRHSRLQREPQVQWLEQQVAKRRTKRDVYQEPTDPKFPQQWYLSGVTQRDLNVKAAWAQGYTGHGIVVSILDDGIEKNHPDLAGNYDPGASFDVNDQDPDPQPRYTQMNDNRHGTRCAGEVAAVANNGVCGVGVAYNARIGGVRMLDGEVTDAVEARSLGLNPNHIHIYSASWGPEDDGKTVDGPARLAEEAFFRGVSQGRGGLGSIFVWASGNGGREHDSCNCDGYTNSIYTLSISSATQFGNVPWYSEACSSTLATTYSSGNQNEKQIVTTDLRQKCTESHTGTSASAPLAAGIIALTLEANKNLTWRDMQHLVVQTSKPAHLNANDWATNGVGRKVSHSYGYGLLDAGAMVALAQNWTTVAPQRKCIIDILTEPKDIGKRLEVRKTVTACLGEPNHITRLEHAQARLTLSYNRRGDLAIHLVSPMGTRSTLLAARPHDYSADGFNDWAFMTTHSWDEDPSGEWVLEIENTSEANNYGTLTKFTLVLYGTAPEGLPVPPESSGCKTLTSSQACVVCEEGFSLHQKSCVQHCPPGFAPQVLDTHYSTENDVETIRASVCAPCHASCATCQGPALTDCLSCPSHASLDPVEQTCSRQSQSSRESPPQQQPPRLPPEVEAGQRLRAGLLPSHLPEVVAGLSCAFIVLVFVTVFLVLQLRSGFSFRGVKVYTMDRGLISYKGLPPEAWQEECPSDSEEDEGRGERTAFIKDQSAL", "assay": "Inhibition of furin (unknown origin) using Pyr-RTKR-MCA as substrate incubated for 30 mins and measured by FRET assay"}, "Furin [2]": {"molecular_target": "T1, Furin", "assay": "Inhibition of furin in human U2OS cells measured after 24 hrs by fluorescence assay", "type": "cell-based"}, "Mus musculus [3]": {"system": "Mus musculus", "assay": "Antifibrotic activity against bleomycin-induced mouse lung fibrosis model assessed as inhibition of TGF-beta secretion in lung at 10 mg/kg, po administered once daily", "type": "functional"}, "Mus musculus [4]": {"system": "Mus musculus", "assay": "Antifibrotic activity against bleomycin-induced mouse lung fibrosis model assessed as inhibition of hydroxyproline content in lung at 10 mg/kg, po administered once daily", "type": "functional"}, "Furin [5]": {"molecular_target": "T1, Furin", "assay": "Inhibition of Recombinant vaccinia-expressed furin (unknown origin) using Pyr-RTKR-MCA as substrate and measured by fluorescence based assay"}, "[6]": {"assay": "Inhibition of migration of human HT-1080 cells at 100 uM measured by calcein AM/ethidium homodimer (EthD-1) staining method", "type": "functional"}, "[7]": {"assay": "Cytotoxicity against human HT-1080 cells assessed as cell viability at 100 uM and measured after 2 hrs by WST-1 method", "type": "toxicity, cell-based", "settings": "read-out: Activity"}, "[8]": {"assay": "Cytotoxicity against chinese hamster CHO-DG44 cells assessed as cell viability at 100 uM and measured after 2 hrs by WST-1 method", "type": "toxicity, cell-based, Cricetulus griseus", "settings": "read-out: Activity"}, "Furin [9]": {"molecular_target": "T1, Furin", "assay": "Inhibition of furin (unknown origin)"}, "RAW264.7": {"system": "RAW264.7", "assay": "Protective activity against Anthrax toxin-induced cytotoxicity in mouse RAW264.7 cells measured by WST-1 method", "type": "functional", "settings": "dose 100 µM"}, "[10]": {"assay": "Protective activity against Pseudomonas aeruginosa exotoxin A-induced cytotoxicity in chinese hamster CHO-DG44 cells measured by WST-1 method", "type": "functional, Cricetulus griseus", "settings": "dose 100 µM"}}, "note": "Numbered stars: 1 amine (or outer) side, 2 acyl side, 3 side chain; on linkers, the order of the positions; unused ones are H or OH. Bridge positions count the residues as written; N and C are the ends. Peptide text beside a SMILES is read from it. * marks the point of attachment. NH(4-amidinobenzyl) = N=C(N)c1ccc(CN*)cc1; Glutaryl = O=C(CCCC(=O)[*:2])[*:1]"}
{"smiles": "N=C(N)N[C@H]1C[C@@H](NC(=N)N)[C@H](Oc2ccc(C(=N)N)cc2Cl)C[C@@H]1Oc1ccc(C(=N)N)cc1Cl", "values": [{"measurement": "Ki", "setting": "Furin [1]", "result": 5, "unit": "nM"}]}
{"smiles": "CN1CCN(c2ncc(Oc3cc(CN4CCC(CC(=O)O)CC4)cc(-c4cc(Cl)cc(Cl)c4)n3)cn2)CC1", "values": [{"measurement": "pXC50", "setting": "Furin [2]", "result": 7.8}, {"measurement": "inhibition in vivo at 10 mg/kg", "setting": "Mus musculus [3]", "result": 66, "unit": "%"}, {"measurement": "inhibition in vivo at 10 mg/kg", "setting": "Mus musculus [4]", "result": 46, "unit": "%"}]}
{"smiles": "N=C(N)N[C@H]1C[C@@H](NC(=N)N)[C@H](Oc2ccc(C(=N)N)cc2)C[C@@H]1Oc1ccc(C(=N)N)cc1", "values": [{"measurement": "Ki", "setting": "Furin [1]", "result": 2, "unit": "nM"}]}
{"smiles": "N=C(N)Nc1ccc(OCCCOc2ccc(NC(=N)N)cc2)cc1", "values": [{"measurement": "Ki", "setting": "Furin [5]", "result": 8300, "unit": "nM"}, {"measurement": "inhibition at 100 µM", "setting": "[6]", "result": "< 40", "unit": "%"}, {"measurement": "viability at 2 h, 100 µM", "setting": "[7]", "result": 60, "unit": "%"}, {"measurement": "viability at 2 h, 100 µM", "setting": "[8]", "result": 60, "unit": "%"}]}
{"smiles": "N=C(N)N[C@H]1C[C@@H](NC(=N)N)[C@H](Oc2ccc(C(=N)N)cc2C(=N)N)C[C@@H]1Oc1ccc(C(=N)N)cc1C(=N)N", "values": [{"measurement": "Ki", "setting": "Furin [1]", "result": 100, "unit": "nM"}]}
{"smiles": "O=C(O)CC1CCN(Cc2cc(Oc3cnc(N4CCNCC4)nc3)nc(-c3cc(Cl)cc(Cl)c3)c2)CC1", "values": [{"measurement": "pXC50", "setting": "Furin [2]", "result": 7.6}, {"measurement": "inhibition in vivo at 10 mg/kg", "setting": "Mus musculus [3]", "result": -11, "unit": "%"}, {"measurement": "inhibition in vivo at 10 mg/kg", "setting": "Mus musculus [4]", "result": 6, "unit": "%"}]}
{"smiles": "CC(C)(C)[C@H](NC(=O)[C@H](CCCNC(=N)N)NC(=O)Cc1ccc(CNC(=N)N)cc1)C(=O)N[C@@H](CCCN)C(=O)NCc1ccc(C(=N)N)cc1", "values": [{"measurement": "Ki", "setting": "Furin [9]", "result": 0.0088, "unit": "nM"}]}
{"smiles": "N=C(N)Nc1ccc(Oc2cccc(Oc3ccc(NC(=N)N)cc3)c2)cc1", "values": [{"measurement": "Activity", "setting": "RAW264.7", "result": 70, "unit": "%"}, {"measurement": "Ki", "setting": "Furin [5]", "result": 1500, "unit": "nM"}, {"measurement": "inhibition at 100 µM", "setting": "[6]", "result": 90, "unit": "%"}, {"measurement": "viability at 2 h, 100 µM", "setting": "[7]", "result": "> 20", "unit": "%"}, {"measurement": "viability at 2 h, 100 µM", "setting": "[8]", "result": "> 20", "unit": "%"}]}
{"smiles": "N=C(N)N[C@H]1C[C@@H](NC(=N)N)[C@H](Oc2ccc(C(=N)N)c3ccccc23)C[C@@H]1Oc1ccc(C(=N)N)c2ccccc12", "values": [{"measurement": "Ki", "setting": "Furin [1]", "result": 50, "unit": "nM"}]}
{"smiles": "N=C(N)Nc1ccc(O[C@H]2C[C@@H](Oc3ccc(NC(=N)N)c4ccccc34)[C@H](NC(=N)N)C[C@@H]2NC(=N)N)c(NC(=N)N)c1", "values": [{"measurement": "Activity", "setting": "RAW264.7", "result": 50, "unit": "%"}, {"measurement": "inhibition at 100 µM", "setting": "[6]", "result": "> 60", "unit": "%"}, {"measurement": "viability at 2 h, 100 µM", "setting": "[7]", "result": "> 80", "unit": "%"}, {"measurement": "viability at 2 h, 100 µM", "setting": "[8]", "result": "> 80", "unit": "%"}]}
{"smiles": "N=C(N)NCCC[C@@H]1NC(=O)CCCC(=O)NCCCC[C@@H](C(=O)N[C@@H](CCCNC(=N)N)C(=O)NCc2ccc(C(=N)N)cc2)NC(=O)[C@H](CCCNC(=N)N)NC(=O)[C@H](CCCNC(=N)N)NC1=O", "note": "(RRRKR-{NH(4-amidinobenzyl)}; linker N-4 via Glutaryl)", "values": [{"measurement": "Ki", "setting": "Furin [9]", "result": 0.68, "unit": "nM"}]}
{"smiles": "N=C(N)Nc1ccc(OC2CCCC(Oc3ccc(NC(=N)N)cc3NC(=N)N)C2)c(NC(=N)N)c1", "note": "(centres undefined)", "values": [{"measurement": "Activity", "setting": "RAW264.7", "result": 70, "unit": "%"}, {"measurement": "Ki", "setting": "Furin [5]", "result": 1200, "unit": "nM"}, {"measurement": "inhibition at 100 µM", "setting": "[6]", "result": "< 40", "unit": "%"}, {"measurement": "viability at 2 h, 100 µM", "setting": "[7]", "result": "> 90", "unit": "%"}, {"measurement": "viability at 2 h, 100 µM", "setting": "[8]", "result": "> 90", "unit": "%"}, {"measurement": "Activity", "setting": "[10]", "result": 30, "unit": "%"}]}
{"smiles": "N=C(N)c1ccc(/N=N/Nc2ccc(C(=N)N)cc2)cc1", "note": "[DIMINAZENE]", "values": [{"measurement": "Ki", "setting": "Furin [1]", "result": 5420, "unit": "nM"}]}
{"smiles": "N=C(N)NCCC[C@@H]1NC(=O)CCCC(=O)NCCCC[C@@H](C(=O)N[C@@H](CCCCN)C(=O)NCc2ccc(C(=N)N)cc2)NC(=O)[C@H](CCCNC(=N)N)NC1=O", "note": "(RRKK-{NH(4-amidinobenzyl)}; linker N-3 via Glutaryl)", "values": [{"measurement": "Ki", "setting": "Furin [9]", "result": 1.05, "unit": "nM"}]}
{"smiles": "N=C(N)Nc1ccc(Oc2cccc(Oc3ccc(NC(=N)N)cc3NC(=N)N)c2)c(NC(=N)N)c1", "values": [{"measurement": "Activity", "setting": "RAW264.7", "result": 100, "unit": "%"}, {"measurement": "Ki", "setting": "Furin [5]", "result": 400, "unit": "nM"}, {"measurement": "inhibition at 100 µM", "setting": "[6]", "result": "< 20", "unit": "%"}, {"measurement": "viability at 2 h, 100 µM", "setting": "[7]", "result": "> 60", "unit": "%"}, {"measurement": "viability at 2 h, 100 µM", "setting": "[8]", "result": "> 60", "unit": "%"}, {"measurement": "Activity", "setting": "[10]", "result": "<40", "unit": "%"}]}
{"smiles": "N=C(N)Nc1ccc(O[C@H]2C[C@@H](Oc3ccc(NC(=N)N)cc3NC(=N)N)[C@H](NC(=N)N)C[C@@H]2NC(=N)N)cc1", "values": [{"measurement": "Activity", "setting": "RAW264.7", "result": ">80", "unit": "%"}, {"measurement": "Ki", "setting": "Furin [5]", "result": 89, "unit": "nM"}, {"measurement": "inhibition at 100 µM", "setting": "[6]", "result": 30, "unit": "%"}, {"measurement": "viability at 2 h, 100 µM", "setting": "[7]", "result": "> 90", "unit": "%"}, {"measurement": "viability at 2 h, 100 µM", "setting": "[8]", "result": "> 90", "unit": "%"}, {"measurement": "Activity", "setting": "[10]", "result": ">30", "unit": "%"}]}
{"smiles": "CC(=O)NCC1CCN(Cc2cc(Oc3cnc(N4CCN(CCC(C)C(=O)O)CC4)nc3)nc(-c3cc(Cl)cc(Cl)c3)c2)CC1", "note": "(centres undefined)", "values": [{"measurement": "pXC50", "setting": "Furin [2]", "result": 8.3}, {"measurement": "inhibition in vivo at 10 mg/kg", "setting": "Mus musculus [3]", "result": 75, "unit": "%"}, {"measurement": "inhibition in vivo at 10 mg/kg", "setting": "Mus musculus [4]", "result": 62, "unit": "%"}]}
{"smiles": "N=C(N)Nc1ccc(O[C@H]2C[C@@H](Oc3ccc(NC(=N)N)cn3)[C@H](NC(=N)N)C[C@@H]2NC(=N)N)nc1", "values": [{"measurement": "Activity", "setting": "RAW264.7", "result": 80, "unit": "%"}, {"measurement": "viability at 2 h, 100 µM", "setting": "[7]", "result": "> 90", "unit": "%"}, {"measurement": "viability at 2 h, 100 µM", "setting": "[8]", "result": "> 90", "unit": "%"}, {"measurement": "Activity", "setting": "[10]", "result": 100, "unit": "%"}]}
{"smiles": "CC(C)[C@H](NC(=O)[C@H](CCCNC(=N)N)NC(=O)[C@@H](N)CCCNC(=N)N)C(=O)N[C@@H](CCCNC(=N)N)C(=O)NCc1ccc(C(=N)N)cc1", "note": "(H-RRVR-{NH(4-amidinobenzyl)})", "values": [{"measurement": "Ki", "setting": "Furin [9]", "result": 0.11, "unit": "nM"}]}
{"smiles": "CC(C)(C)[C@H](NC(=O)[C@H](CCCNC(=N)N)NC(=O)Cc1ccc(CNC(=N)N)cc1)C(=O)N[C@@H](CCCNC(=N)N)C(=O)NCc1ccccc1", "values": [{"measurement": "IC50", "setting": "Furin [9]", "result": 0.56, "unit": "nM"}]}
{"smiles": "N=C(N)Nc1ccc(O[C@H]2C[C@@H](Oc3ccc(NC(=N)N)c4ccccc34)[C@H](NC(=N)N)C[C@@H]2NC(=N)N)c2ccccc12", "values": [{"measurement": "Activity", "setting": "RAW264.7", "result": 80, "unit": "%"}, {"measurement": "inhibition at 100 µM", "setting": "[6]", "result": 40, "unit": "%"}, {"measurement": "viability at 2 h, 100 µM", "setting": "[7]", "result": "> 90", "unit": "%"}, {"measurement": "viability at 2 h, 100 µM", "setting": "[8]", "result": "> 90", "unit": "%"}, {"measurement": "Activity", "setting": "[10]", "result": 30, "unit": "%"}]}
